# Results: patent US4337256A, “1-Phenyl isoquinoline-5-acetic acid compounds and analgesic compositions thereof” (priority 1978, dated 1982)
# Where two headings read alike, the source gives them in different places.
# Key:
# [1] = system: left hind paw edema (carrageenin); assay: Anti-inflammatory activity: carrageenin-induced left hind paw edema; type: in vivo, male Wistar rats; settings: Rattus norvegicus, po, read-out: Percent inhibition (edema)
# Procedure: Male Wistar rats weighing 120 to 150 g which had been fasted for 24 hours were used in groups each consisting of 5 rats. In each group, the volumes of the left hind paw were measured by a volume differential meter (made by Ugo Basile Company), and each of the test compounds was suspended in an aqueous solution of 0.5% of carboxymethyl cellulose and 2.0% of Tween 80, and administered orally through a tube. After one hour from the administration, 0.1 ml of a 1% suspension of carrageenin in distilled water was subcutaneously injected into the plantar tissues of the left hind paw. Three hours later, the volumes of the left hind paw were again measured. The increase in volume of the left hind paw of each rat in each group (the volume of edema) was measured.
# Toxicity test (LD50) = settings: mouse, in vivo; oral, observed for 1 week; parentheses show 95% confidence limits
# Procedure: Each of the test compounds was suspended in a physiological saline solution having dissolved therein 2% of Tween 80, and orally administered through a tube to groups of ddY mice (male: 19 to 22 g) each group consisting of 6 mice. The mice were then observed for 1 week. The LD50 values were calculated from the lethality in accordance with the method of Litchfield-Wilcoxon.
# stomach mucosal membrane = assay: Ulcerogenic activity: gastric ulceration; type: in vivo, male Wistar rats; settings: p.o., 4 h
# Procedure: Each of the test compounds was orally administered by the same way as in the test on anti-inflammatory activity to male Wistar rats weighing 120 to 150 g which had been fasted for 24 hours. Four hours later, they were killed with ether.
# [2] = system: writhings (acetic acid) in the mice; assay: Analgesic activity: acetic acid writhing test; type: in vivo, male mice (ddY); settings: Mus musculus, po, read-out: ED50 (analgesic, writhing inhibition)
# Procedure: Male mice (ddY) weighing 18 to 22 g were used in groups each consisting of 10 mice. Each of the compounds was suspended in an aqueous solution of 0.5% of carboxymethyl cellulose and 2.0% of Tween 80, and administered orally through a tube. After one hour from the administration, 0.6% acetic acid was administered intraperitoneally in an amount of 0.1 ml per 10 g of body weight, and the number of writhings which occurred in the mice during a period of 20 minutes after the administration was measured. The percent inhibition was calculated from the following equation, and the ED50 values of the test compounds were calculated from the percent inhibition in accordance with the method of Litchfield-Wilcoxon.
# digestive organs = settings: known agents, statement in words; cited from earlier work
# [3] = 1 mg/kg, p.o., 1 h before carrageenin, measured 3 h later
# [4] = 3 mg/kg, p.o., 1 h before carrageenin, measured 3 h later
# [5] = p.o. 1 h before 0.6% acetic acid i.p., parentheses show 95% confidence limits
# [6] = 10 mg/kg, p.o., 1 h before carrageenin, measured 3 h later
# [7] = p.o., 1 h before carrageenin, measured 3 h later
compound,measurement,setting,value
"O=C(O)Cc1cccc2c(-c3ccc(Br)cc3)nccc12 [B, 1-(4-bromophenyl)isoquinoline-5-acetic acid]",inhibition in vivo at 0.3 mg/kg,"[1]; 0.3 mg/kg, p.o., 1 h before carrageenin, measured 3 h later",26.8 ± 5.3%
same,inhibition in vivo at 1 mg/kg,[1]; [3],33.7 ± 6.1%
same,inhibition in vivo at 3 mg/kg,[1]; [4],48.2 ± 4.4%
same,LD50 at 168 h,Toxicity test (LD50),182 mg/kg
same,Gastric ulceration: bleeding at the mucosal membrane,stomach mucosal membrane; 10 mg/kg,0/5
same,Gastric ulceration: damage beneath the mucosal membrane,stomach mucosal membrane; 10 mg/kg,0/5
same,Gastric ulceration: bleeding at the mucosal membrane,stomach mucosal membrane; 30 mg/kg,2/5
same,Gastric ulceration: damage beneath the mucosal membrane,stomach mucosal membrane; 30 mg/kg,4/5
same,ED50,[2]; [5],1 mg/kg
"O=C(O)Cc1cccc2c(-c3ccc(F)cc3)nccc12 [C, 1-(4-fluorophenyl)isoquinoline-5-acetic acid]",inhibition in vivo at 1 mg/kg,[1]; [3],25.6 ± 3.4%
same,inhibition in vivo at 3 mg/kg,[1]; [4],28.3 ± 5.8%
same,inhibition in vivo at 10 mg/kg,[1]; [6],36.5 ± 4%
same,LD50 at 168 h,Toxicity test (LD50),> 300 mg/kg
same,ED50,[2]; [5],8.8 mg/kg
"Cc1ccc(-c2nccc3c(CC(=O)O)cccc23)cc1 [Compound E, 1-(4-methylphenyl)isoquinoline-5-acetic acid]",inhibition in vivo at 3 mg/kg,[1]; [4],26.9 ± 5.2%
same,inhibition in vivo at 10 mg/kg,[1]; [6],49.5 ± 5.1%
same,LD50 at 168 h,Toxicity test (LD50),> 300 mg/kg
same,Gastric ulceration: bleeding at the mucosal membrane,stomach mucosal membrane; 10 mg/kg,0/5
same,Gastric ulceration: damage beneath the mucosal membrane,stomach mucosal membrane; 10 mg/kg,0/5
same,Gastric ulceration: bleeding at the mucosal membrane,stomach mucosal membrane; 30 mg/kg,0/5
same,Gastric ulceration: damage beneath the mucosal membrane,stomach mucosal membrane; 30 mg/kg,4/5
same,ED50,[2]; [5],4.3 mg/kg
"O=C(O)Cc1cccc2c(C3CCCCC3)nccc12 [Compound L, 1-cyclohexylisoquinoline-5-acetic acid]",inhibition in vivo at 1 mg/kg,[1]; [3],9.7 ± 2%
same,inhibition in vivo at 3 mg/kg,[1]; [4],17.4 ± 5.2%
same,inhibition in vivo at 10 mg/kg,[1]; [6],43.1 ± 4.3%
same,LD50 at 168 h,Toxicity test (LD50),> 300 mg/kg
same,Gastric ulceration: bleeding at the mucosal membrane,stomach mucosal membrane; 10 mg/kg,0/5
same,Gastric ulceration: damage beneath the mucosal membrane,stomach mucosal membrane; 10 mg/kg,0/5
same,Gastric ulceration: bleeding at the mucosal membrane,stomach mucosal membrane; 30 mg/kg,3/5
same,Gastric ulceration: damage beneath the mucosal membrane,stomach mucosal membrane; 30 mg/kg,3/5
same,ED50,[2]; [5],8.5 mg/kg
"CN(C)c1ccc(-c2nccc3c(CC(=O)O)cccc23)cc1 [D, 1-(4-dimethylaminophenyl)isoquinoline-5-acetic acid]",inhibition in vivo at 1 mg/kg,[1]; [3],16.3 ± 7.1%
same,inhibition in vivo at 3 mg/kg,[1]; [4],34.2 ± 5.6%
same,inhibition in vivo at 10 mg/kg,[1]; [6],42.1 ± 5.3%
same,LD50 at 168 h,Toxicity test (LD50),> 300 mg/kg
same,Gastric ulceration: bleeding at the mucosal membrane,stomach mucosal membrane; 10 mg/kg,0/6
same,Gastric ulceration: damage beneath the mucosal membrane,stomach mucosal membrane; 10 mg/kg,0/6
same,Gastric ulceration: bleeding at the mucosal membrane,stomach mucosal membrane; 30 mg/kg,3/6
same,Gastric ulceration: damage beneath the mucosal membrane,stomach mucosal membrane; 30 mg/kg,3/6
same,ED50,[2]; [5],0.11 mg/kg
"CC(C(=O)O)c1cccc2c(-c3ccc(Cl)cc3)nccc12 (centres unmarked) [F, 2-[1-(4-chlorophenyl)isoquinolin-5-yl]propionic acid]",inhibition in vivo at 1 mg/kg,[1]; [3],27.3 ± 6.3%
same,inhibition in vivo at 3 mg/kg,[1]; [4],33.1 ± 4.8%
same,inhibition in vivo at 10 mg/kg,[1]; [6],39.7 ± 5.1%
same,Gastric ulceration: bleeding at the mucosal membrane,stomach mucosal membrane; 10 mg/kg,1/5
same,Gastric ulceration: damage beneath the mucosal membrane,stomach mucosal membrane; 10 mg/kg,0/5
same,Gastric ulceration: bleeding at the mucosal membrane,stomach mucosal membrane; 30 mg/kg,2/5
same,Gastric ulceration: damage beneath the mucosal membrane,stomach mucosal membrane; 30 mg/kg,2/5
same,ED50,[2]; [5],3.2 mg/kg
"COc1ccc(-c2nccc3c(CC(=O)O)cccc23)cc1 [G, 1-(4-methoxyphenyl)isoquinoline-5-acetic acid]",inhibition in vivo at 1 mg/kg,[1]; [3],13.1 ± 9.1%
same,inhibition in vivo at 3 mg/kg,[1]; [4],32.3 ± 6.3%
same,inhibition in vivo at 10 mg/kg,[1]; [6],41.2 ± 7.2%
same,LD50 at 168 h,Toxicity test (LD50),> 300 mg/kg
same,Gastric ulceration: bleeding at the mucosal membrane,stomach mucosal membrane; 30 mg/kg,0/5
same,Gastric ulceration: damage beneath the mucosal membrane,stomach mucosal membrane; 30 mg/kg,0/5
same,ED50,[2]; [5],9.2 mg/kg
"O=C(O)Cc1cccc2c(-c3ccccc3)nccc12 [H, 1-phenylisoquinoline-5-acetic acid]",inhibition in vivo at 3 mg/kg,[1]; [4],21.8 ± 4.5%
same,inhibition in vivo at 10 mg/kg,[1]; [6],31 ± 5.2%
same,inhibition in vivo at 30 mg/kg,[1]; [7],46.4 ± 7.7%
same,LD50 at 168 h,Toxicity test (LD50),> 300 mg/kg
same,Gastric ulceration: bleeding at the mucosal membrane,stomach mucosal membrane; 10 mg/kg,1/15
same,Gastric ulceration: damage beneath the mucosal membrane,stomach mucosal membrane; 10 mg/kg,1/15
same,Gastric ulceration: bleeding at the mucosal membrane,stomach mucosal membrane; 30 mg/kg,4/20
same,Gastric ulceration: damage beneath the mucosal membrane,stomach mucosal membrane; 30 mg/kg,2/20
same,ED50,[2]; [5],4.1 mg/kg
"O=C(O)Cc1cccc2c(-c3ccc(C(F)(F)F)cc3)nccc12 [I, 1-(4-trifluoromethylphenyl)isoquinoline-5-acetic acid]",inhibition in vivo at 3 mg/kg,[1]; [4],17 ± 4.5%
same,inhibition in vivo at 10 mg/kg,[1]; [6],24.5 ± 7.1%
same,inhibition in vivo at 30 mg/kg,[1]; [7],30.2 ± 5.3%
"COc1ccc2c(c1)c(CC(=O)O)c(C)n2C(=O)c1ccc(Cl)cc1 [Indomethacin, reference compound]",troubles in the digestive organs,digestive organs,fairly heavy troubles in the digestive organs
same,inhibition in vivo at 1 mg/kg,[1]; 3 h,15.9 ± 6.2%
same,inhibition in vivo at 3 mg/kg,[1]; 3 h,29.8 ± 5.7%
same,inhibition in vivo at 10 mg/kg,[1]; 3 h,40.6 ± 5.1%
same,LD50 at 168 h,Toxicity test (LD50),17.3 mg/kg
same,ED50,[2]; 1 h,0.21 mg/kg
"CCOC(=O)Cc1cccc2c(-c3ccccc3)nccc12 [J, ethyl-1-phenylisoquinoline-5-acetate]",inhibition in vivo at 10 mg/kg,[1]; [6],23.2 ± 6.1%
same,inhibition in vivo at 30 mg/kg,[1]; [7],41.1 ± 4.8%
"NC(=O)Cc1cccc2c(-c3ccccc3)nccc12 [K, 1-phenylisoquinoline-5-acetamide]",inhibition in vivo at 10 mg/kg,[1]; [6],9 ± 6.4%
same,inhibition in vivo at 30 mg/kg,[1]; [7],39.7 ± 5.8%
"CC(C)c1nccc2c(CC(=O)O)cccc12 [M, 1-isopropylisoquinoline-5-acetic acid]",inhibition in vivo at 1 mg/kg,[1]; [3],19.3 ± 2.6%
same,inhibition in vivo at 3 mg/kg,[1]; [4],38.6 ± 3.2%
same,inhibition in vivo at 10 mg/kg,[1]; [6],62.9 ± 5.9%
same,LD50 at 168 h,Toxicity test (LD50),250 mg/kg
same,ED50,[2]; [5],3.5 mg/kg
"O=C(O)Cc1cccc2c(C3CCCC3)nccc12 [N, 1-cyclopentylisoquinoline-5-acetic acid]",inhibition in vivo at 3 mg/kg,[1]; [4],21.9 ± 8.1%
same,inhibition in vivo at 10 mg/kg,[1]; [6],24.8 ± 4.9%
"CC(C)Cc1nccc2c(CC(=O)O)cccc12 [O, 1-isobutylisoquinoline-5-acetic acid]",inhibition in vivo at 3 mg/kg,[1]; [4],21.2 ± 7.8%
same,inhibition in vivo at 10 mg/kg,[1]; [6],30.3 ± 5.6%
same,inhibition in vivo at 30 mg/kg,[1]; [7],42.8 ± 8.8%
"CCC(C)c1nccc2c(CC(=O)O)cccc12 (centres unmarked) [P, 1-sec-butylisoquinoline-5-acetic acid]",inhibition in vivo at 3 mg/kg,[1]; [4],15.9 ± 10.4%
same,inhibition in vivo at 10 mg/kg,[1]; [6],39.6 ± 7%
